Experimental data taken from article PMC10926851 (Journal of medicinal chemistry, 2021).
Entries after “also recorded” stand apart in the source; their conditions may differ. Read-outs that look alike come from different tables or passages of the source.

Experiments:
HDAC4 = HDAC4 (Homo sapiens, UniProt P56524); assay: HDAC4 activity assay; format: biochemical; conditions: HDAC4 vs HDAC8
[1] = test system: HeLa (cervical adenocarcinoma); conditions: for SCI (CC50 HS-27/CC50 cancer), HeLa: selective cytotoxicity index
[2] = test system: CCRF-CEM (T-cell leukemia); conditions: for SCI (CC50 HS-27/CC50 cancer), CEM: selective cytotoxicity index; for cytotoxicity at 50 μM, CEM (printed in CC50 column): 72 h
CCRF-CEM cells = assay: Western blotting; format: cell-based, human; conditions: 10 μM, 5 h
[3] = test system: Ramos (Burkitt's B-cell lymphoma); conditions: selective cytotoxicity index
[4] = test system: CEM (T cell leukemia) xenografts; conditions: mouse, in vivo
HDAC8 = molecular target: T1, HDAC8 (Homo sapiens, UniProt Q9BY41); assay: HDAC8 activity assay; format: biochemical; conditions: at tested concentrations
T1 sequence (Q9BY41 1-377): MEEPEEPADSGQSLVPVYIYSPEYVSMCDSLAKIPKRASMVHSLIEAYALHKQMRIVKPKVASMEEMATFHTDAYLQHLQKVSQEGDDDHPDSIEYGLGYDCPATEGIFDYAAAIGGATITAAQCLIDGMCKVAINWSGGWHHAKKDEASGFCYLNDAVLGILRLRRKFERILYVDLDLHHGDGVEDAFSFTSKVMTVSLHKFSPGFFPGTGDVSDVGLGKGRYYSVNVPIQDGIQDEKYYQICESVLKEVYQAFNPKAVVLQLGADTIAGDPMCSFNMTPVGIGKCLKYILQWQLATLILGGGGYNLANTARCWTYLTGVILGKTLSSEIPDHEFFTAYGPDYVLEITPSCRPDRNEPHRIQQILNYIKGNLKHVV

[5] = test system: HS-27 (normal foreskin fibroblasts); assay: DNS cytotoxicity assay, HS-27; format: cell-based, human; conditions: 72 h, noncancerous cells
[6] = test system: HeLa (cervical adenocarcinoma); assay: cells; conditions: Homo sapiens, 72 h, read-out: % cell death at 10 μM, HeLa
PPARγ = molecular target: T2, PPARγ (Homo sapiens, UniProt P37231); assay: PPARγ-GAL4 transactivation assay on HepG2 cells; format: cell-based; conditions: HepG2, 25, 5 and 1 μM
T2 sequence (P37231 238-503 limits assumed): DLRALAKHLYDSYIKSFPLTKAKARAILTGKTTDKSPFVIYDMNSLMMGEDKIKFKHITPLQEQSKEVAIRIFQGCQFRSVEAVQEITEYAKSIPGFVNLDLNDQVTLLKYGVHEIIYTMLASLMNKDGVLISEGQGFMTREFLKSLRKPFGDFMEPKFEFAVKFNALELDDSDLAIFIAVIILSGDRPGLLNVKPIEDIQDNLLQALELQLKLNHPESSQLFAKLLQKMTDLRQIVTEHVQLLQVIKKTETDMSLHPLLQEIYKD

Chain of HDAC4 (P56524 655-1084 limits assumed): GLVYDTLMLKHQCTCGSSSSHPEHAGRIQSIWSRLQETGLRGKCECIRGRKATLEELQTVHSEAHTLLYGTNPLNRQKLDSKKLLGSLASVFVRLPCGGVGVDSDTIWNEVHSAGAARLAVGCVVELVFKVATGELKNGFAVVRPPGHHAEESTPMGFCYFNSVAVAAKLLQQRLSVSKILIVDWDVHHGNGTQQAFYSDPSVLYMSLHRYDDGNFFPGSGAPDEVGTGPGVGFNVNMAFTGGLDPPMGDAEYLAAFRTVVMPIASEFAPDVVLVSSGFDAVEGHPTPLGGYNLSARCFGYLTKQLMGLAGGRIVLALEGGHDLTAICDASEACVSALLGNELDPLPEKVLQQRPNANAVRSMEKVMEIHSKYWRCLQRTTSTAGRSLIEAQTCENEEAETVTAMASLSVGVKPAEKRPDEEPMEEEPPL

O=C(COc1ccc2cc(/C=C3/SC(=O)NC3=O)ccc2c1)Nc1ccccc1 [7a, 2-((6-((2,4-Dioxothiazolidin-5-ylidene)methyl)naphthalen-2-yl)-oxy)-N-phenylacetamide]
potency toward HDAC4 over HDAC8 (from IC50 values) (HDAC4): at least 2 fold

O=C(COc1ccc2cc(/C=C3/SC(=O)NC3=O)ccc2c1)Nc1ccc(F)cc1 [7b, 2-((6-((2,4-Dioxothiazolidin-5-ylidene)methyl)naphthalen-2-yl)-oxy)-N-(4-fluorophenyl)acetamide]
potency toward HDAC4 over HDAC8 (from IC50 values) (HDAC4): at least 2 fold

Cc1ccc(NC(=O)COc2ccc3cc(/C=C4/SC(=O)NC4=O)ccc3c2)cc1 [7c, 2-((6-((2,4-Dioxothiazolidin-5-ylidene)methyl)naphthalen-2-yl)-oxy)-N-(p-tolyl)acetamide]
SCI (CC50 HS-27/CC50 cancer), HeLa [1]: 3.9
SCI (CC50 HS-27/CC50 cancer), CEM [2]: 14.4
p53 expression (CCRF-CEM cells): no upregulated expression was observed
c-Myc protein expression (CCRF-CEM cells; vs pioglitazone 10 μM): downregulation of the c-Myc protein much greater than positive control pioglitazone
cleaved caspase-3 expression (CCRF-CEM cells; vs pioglitazone 10 μM): increased expression of cleaved caspase-3
SCI (CC50 HS-27/CC50 cancer), Ramos [3]: 5.8
body weights of the mice [4]: not significantly affected

O=C(COc1ccc2cc(/C=C3/SC(=O)NC3=O)ccc2c1)Nc1cccc(C(F)(F)F)c1 [7e, 2-((6-((2,4-Dioxothiazolidin-5-ylidene)methyl)naphthalen-2-yl)-oxy)-N-(3-(trifluoromethyl)phenyl) acetamide]
HDAC8 inhibition (in words) (HDAC8): did not show HDAC8 inhibition
% cell death at 10 μM, HS-27 [5]: >40%

O=C(COc1ccc2cc(/C=C3/SC(=O)NC3=O)ccc2c1)Nc1cccc(Cl)c1 [7f, N-(3-Chlorophenyl)-2-((6-((2,4-dioxothiazolidin-5-ylidene)-methyl)naphthalen-2-yl)oxy)acetamide]
HDAC8 inhibition (in words) (HDAC8): did not show HDAC8 inhibition
SCI (CC50 HS-27/CC50 cancer), Ramos [3]: >10

COc1cccc(NC(=O)COc2ccc3cc(/C=C4/SC(=O)NC4=O)ccc3c2)c1 [7g, 2-((6-((2,4-Dioxothiazolidin-5-ylidene)methyl)naphthalen-2-yl)-oxy)-N-(3-methoxyphenyl)acetamide]
SCI (CC50 HS-27/CC50 cancer), HeLa [1]: >10
potency toward HDAC4 over HDAC8 (from IC50 values) (HDAC4): at least 2 fold
SCI (CC50 HS-27/CC50 cancer), Ramos [3]: >10
cytotoxicity at 10 µM [6]: > 40%

O=C(COc1ccc2cc(/C=C3/SC(=O)NC3=O)ccc2c1)Nc1ccc(Cl)c(Cl)c1 [7h, N-(3,4-Dichlorophenyl)-2-((6-((2,4-dioxothiazolidin-5-ylidene)-methyl)naphthalen-2-yl)oxy)acetamide]
HDAC8 inhibition (in words) (HDAC8): inactive; also recorded: not active

O=C(COc1ccc2cc(/C=C3/SC(=O)NC3=O)ccc2c1)Nc1c(F)cc(F)cc1Br [7i, N-(2-Bromo-4,6-difluorophenyl)-2-((6-((2,4-dioxothiazolidin-5-ylidene)methyl)naphthalen-2-yl)oxy)acetamide]
SCI (CC50 HS-27/CC50 cancer), HeLa [1]: 3.8
HDAC8 inhibition (in words) (HDAC8): inactive
SCI (CC50 HS-27/CC50 cancer), CEM [2]: 4.2
SCI (CC50 HS-27/CC50 cancer), Ramos [3]: 4.2

O=C(COc1ccc2cc(/C=C3/SC(=O)NC3=O)ccc2c1)Nc1ccccc1Oc1ccccc1 [7j, 2-((6-((2,4-Dioxothiazolidin-5-ylidene)methyl)naphthalen-2-yl)-oxy)-N-(2-phenoxyphenyl)acetamide]
SCI (CC50 HS-27/CC50 cancer), HeLa [1]: >10
% cell death at 10 μM, HS-27 [5]: 0%
SCI (CC50 HS-27/CC50 cancer), Ramos [3]: >10
cytotoxicity at 10 µM [6]: > 40%

O=C(COc1ccc2cc(/C=C3/SC(=O)NC3=O)ccc2c1)Nc1ccc(F)cc1F [7k, N-(2,4-Difluorophenyl)-2-((6-((2,4-dioxothiazolidin-5-ylidene)-methyl)naphthalen-2-yl)oxy)acetamide]
HDAC8 inhibition (in words) (HDAC8): inactive

Cc1cc(Br)ccc1NC(=O)COc1ccc2cc(/C=C3/SC(=O)NC3=O)ccc2c1 [7l, N-(4-Bromo-2-methylphenyl)-2-((6-((2,4-dioxothiazolidin-5-ylidene)methyl)naphthalen-2-yl)oxy)acetamide]
SCI (CC50 HS-27/CC50 cancer), HeLa [1]: >10

Cc1cccc(NC(=O)COc2ccc3cc(/C=C4/SC(=O)NC4=O)ccc3c2)n1 [7n, 2-((6-((2,4-Dioxothiazolidin-5-ylidene)methyl)naphthalen-2-yl)-oxy)-N-(6-methylpyridin-2-yl)acetamide]
potency toward HDAC4 over HDAC8 (from IC50 values) (HDAC4): at least 2 fold

O=C(COc1ccc2cc(/C=C3/SC(=O)NC3=O)ccc2c1)Nc1ccc(Br)cc1 [7o, N-(4-Bromophenyl)-2-((6-((2,4-dioxothiazolidin-5-ylidene)-methyl)naphthalen-2-yl)oxy)acetamide]
SCI (CC50 HS-27/CC50 cancer), HeLa [1]: >10

O=C(COc1ccc2cc(/C=C3/SC(=O)NC3=O)ccc2c1)Nc1cc(Cl)cc(C(F)(F)F)c1 [7p, N-(3-Chloro-5-(trifluoromethyl)phenyl)-2-((6-((2,4-dioxothiazoli-din-5-ylidene)methyl)naphthalen-2-yl)oxy)acetamide]
HDAC8 inhibition (in words) (HDAC8): did not show HDAC8 inhibition

O=C(COc1ccc2cc(/C=C3/SC(=O)NC3=O)ccc2c1)Nc1ccc(Br)cc1F [7r, N-(4-Bromo-2-fluorophenyl)-2-((6-((2,4-dioxothiazolidin-5-ylidene)methyl)naphthalen-2-yl)oxy)acetamide]
HDAC8 inhibition (in words) (HDAC8): inactive

O=C(COc1ccc2cc(/C=C3/SC(=O)NC3=O)ccc2c1)Nc1cccc(F)n1 [7s, 2-((6-((2,4-Dioxothiazolidin-5-ylidene)methyl)naphthalen-2-yl)-oxy)-N-(6-fluoropyridin-2-yl)acetamide]
potency toward HDAC4 over HDAC8 (from IC50 values) (HDAC4): at least 2 fold

Cc1ccc(NC(=O)COc2ccc3cc(/C=C4/SC(=O)NC4=O)ccc3c2)cc1Cl [7u, N-(3-Chloro-4-methylphenyl)-2-((6-((2,4-dioxothiazolidin-5-ylidene)methyl)naphthalen-2-yl)oxy)acetamide]
HDAC8 inhibition (in words) (HDAC8): not active

O=C(COc1ccc2cc(/C=C3/SC(=O)NC3=O)ccc2c1)Nc1ccc(Br)c(Br)c1 [7v, N-(3,4-Dibromophenyl)-2-((6-((2,4-dioxothiazolidin-5-ylidene)-methyl)naphthalen-2-yl)oxy)acetamide]
HDAC8 inhibition (in words) (HDAC8): not active
PPARγ transactivation activity (in words) (PPARγ): poor activity

O=C(COc1ccc2cc(/C=C3/SC(=O)NC3=O)ccc2c1)Nc1nc2ccccc2s1 [7w, N-(Benzo[d]thiazol-2-yl)-2-((6-((2,4-dioxothiazolidin-5-ylidene)-methyl)naphthalen-2-yl)oxy)acetamide]
potency toward HDAC4 over HDAC8 (from IC50 values) (HDAC4): at least 2 fold

Cc1cccc2sc(NC(=O)COc3ccc4cc(/C=C5/SC(=O)NC5=O)ccc4c3)nc12 [7x, 2-((6-((2,4-Dioxothiazolidin-5-ylidene)methyl)naphthalen-2-yl)-oxy)-N-(4-methylbenzo[d]thiazol-2-yl)acetamide]
potency toward HDAC4 over HDAC8 (from IC50 values) (HDAC4): at least 2 fold

CCOc1ccc2nc(NC(=O)COc3ccc4cc(/C=C5/SC(=O)NC5=O)ccc4c3)sc2c1 [7y, 2-((6-((2,4-Dioxothiazolidin-5-ylidene)methyl)naphthalen-2-yl)-oxy)-N-(6-ethoxybenzo[d]thiazol-2-yl)acetamide]
potency toward HDAC4 over HDAC8 (from IC50 values) (HDAC4): at least 2 fold

CCc1ccc(CCOc2ccc(CC3SC(=O)NC3=O)cc2)nc1 (stereo not shown) [Pioglitazone, reference compound]
cytotoxicity at 10 μM, HeLa (printed in CC50 column) ([1]; 10 μM, 72 h): 0% @ 10 μM
cytotoxicity at 50 μM, CEM (printed in CC50 column) [2]: 0% @ 50 μM
cytotoxicity at 50 μM, CEM (printed in CC50 column) ([2]; listed as pioglitazone): no cytotoxic effect

COc1cccc2c1C(=O)c1c(O)c3c(c(O)c1C2=O)C[C@@](O)(C(=O)CO)C[C@@H]3O[C@H]1C[C@H](N)[C@H](O)[C@H](C)O1 [doxorubicin, reference compound]
body weights of the mice [4]: not significantly affected
